Measured values from patent publication US20060058317A1, “Oxazolidinone derivatives as antibacterial” (AstraZeneca AB, priority 2002, published 2006).
≈ marks a conversion by molar mass, not a printed value.

Assays:
Format in all cases: cell-based
[1] = system: Staphylococcus aureus MRQR (methicillin resistant and quinolone resistant); experiment: MIC by agar dilution, Staphylococcus aureus MRQR; conditions: S. aureus MRQR, 10^4 CFU/spot, 37° C., 24 hours
Procedure: (§1) The following results were obtained on a standard in-vitro test system. The activity is described in terms of the minimum inhibitory concentration (MIC) determined by the agar-dilution technique with an inoculum size of 10^4 CFU/spot. Typically, compounds are active in the range 0.01 to 256 μg/ml.
(§2) Staphylococci were tested on agar, using an inoculum of 10^4 CFU/spot and an incubation temperature of 37° C., for 24 hours—standard test conditions for the expression of methicillin resistance.

[2] = system: Haemophilus influenzae; experiment: MIC in Mueller-Hinton broth, Haemophilus influenzae; conditions: Mueller-Hinton broth with hemin and NAD, aerobic, 24 hours, 37° C., 5×10^4 CFU/well
Procedure: as §1
(§3) Streptococci and enterococci were tested on agar supplemented with 5% defibrinated horse blood, an inoculum of 10^4 CFU/spot and an incubation temperature of 37° C., in an atmosphere of 5% carbon dioxide for 48 hours—blood is required for the growth of some of the test organisms. Fastidious Gram negative organisms were tested in Mueller-Hinton broth, supplemented with hemin and NAD, grown aerobically for 24 hours at 37° C., and with an innoculum of 5×10^4 CFU/well.

[3] = system: Enterococcus faecium; experiment: MIC by agar dilution, Enterococcus faecium; conditions: agar with 5% defibrinated horse blood, 10^4 CFU/spot, 37° C., 5% carbon dioxide, 48 hours
Procedure: as §1, §3

[4] = system: Streptococcus pneumoniae; experiment: MIC by agar dilution, Streptococcus pneumoniae; conditions: agar with 5% defibrinated horse blood, 10^4 CFU/spot, 37° C., 5% carbon dioxide, 48 hours
Procedure: as §1, §3

[5] = system: Moraxella catarrhalis; experiment: MIC in Mueller-Hinton broth, Moraxella catarrhalis; conditions: Mueller-Hinton broth with hemin and NAD, aerobic, 24 hours, 37° C., 5×10^4 CFU/well
Procedure: as §1, §3

[6] = system: Linezolid Resistant Streptococcus pneumoniae; experiment: MIC by agar dilution, Linezolid Resistant Streptococcus pneumoniae; conditions: agar with 5% defibrinated horse blood, 10^4 CFU/spot, 37° C., 5% carbon dioxide, 48 hours
Procedure: as §1, §3

[7] = system: Staphylococcus aureus MSQS (methicillin sensitive and quinolone sensitive); experiment: MIC by agar dilution, Staphylococcus aureus MSQS; conditions: S. aureus MSQS, 10^4 CFU/spot, 37° C., 24 hours
Procedure: as §1, §2

MIC [1]: 4 mg/L (≈ 9.15 µM) | MIC [2]: 64 mg/L (≈ 146 µM) | MIC [3]: 4 mg/L (≈ 9.15 µM) | MIC [4]: 1 mg/L (≈ 2.29 µM) | MIC [5]: 4 mg/L (≈ 9.15 µM) | MIC [6]: 64 mg/L (≈ 146 µM) | MIC [7]: 4 mg/L (≈ 9.15 µM)
SMILES: Cn1nnc(-c2ccc(-c3ccc(N4C[C@H](COc5ccon5)OC4=O)cc3F)cn2)n1 [Example 1]
